In patent US20220315895A1, “METHODS OF MAKING OLIGOPOTENT AND UNIPOTENT PRECURSORS” (Transfusion Health, LLC, priority 2019, published 2022):

Columns and labels:
[1] = test system: CD34+ cells from cord blood; assay: HSC Expansion Culture, 21 and 63 days (Example 38); type: cell-based, human; details: +Formula I Condition (Compound 1.010 8 μM)
Protocol: CD34+ cells from cord blood were purchased from STEMCELL Technologies. Primary human CD34+ cells were isolated by the supplier from cord blood samples using positive immunomagnetic separation techniques. Cells were thawed, gradually brought to room temperature, then washed.
Cells were placed in overnight culture in StemSpan with 100 ng/ml each of FLT3L, TPO, SCF, and IL-6. Eighteen hours later (day 1), cells were counted and immunophenotyped (flow cytometry on an Invitrogen Attune N×T cytometer).
A portion of these cells were washed and placed directly into various “Differentiation Cultures,” described below. The remainder of cells were placed into “HSC Expansion Culture,” described here. Approximately 1000 live cells were plated into duplicate 25 cm^2 flasks; exact cell numbers dispensed per flask were quantified with flow cytometry for later calculations. […]
Following 21 and 63 days in Expansion Culture, prior to passaging or CD34 re-enrichment, a sample was taken from each flask for analysis of phenotypes (flow cytometry on an Invitrogen Attune N×T cytometer). Cell numbers calculated for these analyses take into account passaging of cells on prior days. Fold expansion of CD34+ cells was calculated by dividing the cell numbers at later days (21 and 63) by the number of CD34+ cells quantified at day 1.

[2] = test system: CD34+ cells from cord blood; assay: HSC Expansion Culture, 14 to 64 days (Example 42); type: cell-based, human
Protocol: Cryopreserved CD34+ cells from cord blood were purchased from STEMCELL Technologies. Primary human CD34+ cells were isolated by the supplier from cord blood samples using positive immunomagnetic separation techniques. Cells were thawed, gradually brought to room temperature, then washed. Cells were primed for expansion with overnight culture in StemSpan SFEM I with 100 ng/mL each of FLT3L, TPO, SCF, and IL-6. Eighteen-to-twenty-four hours later (day 1), cells were counted and immunophenotyped (flow cytometry on an Invitrogen Attune N×T cytometer). Cells were then placed into “HSC Expansion Culture,” described here, or placed directly into Differentiation Culture with STEMCELL's Myeloid StemSpan Myeloid Expansion Supplement (Granulocyte). Media for expanding CD34+ cell numbers was prepared in StemSpan SFEM II (STEMCELL) and added to duplicate 25 cm^2 flasks (4 ml total volume per flask). Expansion Culture conditions also included an antibiotic solution containing penicillin, streptomycin, and amphotericin B to avoid contamination. Additional media components and concentrations used for the conditions tested were as described above in Table 9. All incubations for Expansion Culture took place at 3% oxygen (controlled by nitrogen) and 5% CO2. During Expansion Culture, samples were taken for cell counting and phenotyping. […]

SMILES: CC(C)(C)C(=O)Nc1ccc2c(c1)C(O)c1ccccc1-2 (stereo not shown) [Compound 1.010]
- fold expansion of CD34+ cells ([1]; 21 days): 600 fold
- fold expansion of CD34+ cells ([1]; 63 days): 244,000 fold
- fold expansion in CD34+ cell numbers ([2]; +Formula I conditions (Compound 1.010 8 μM), day 14): about 270 fold
- fold expansion in CD34+ cell numbers ([2]; +Formula I conditions, day 64): about 86,000 fold
